According to patent publication US6861448B2, “NAD synthetase inhibitors and uses thereof” (priority 1998, dated 2005):
Values after ≈ are worked out from the molar mass of the structure shown. Where two headings read alike, the source gives them in different places.

Assays:
[1] = test system: rabbit primary renal cells (RPRC); assay: Cytotoxicity in rabbit primary renal cells (annexin V / PI flow cytometry); assay type: cell-based; conditions: 24 hr, mean ± SEM; for % CELLULAR NECROSIS (RPRC): at 300 μM; for % APOPTOSIS (RPRC): at peak effect (30 μM)
Method: Cytotoxicity in Rabbit Primary Renal Cells
Isolation of Proximal Tubules and Culture Conditions
Rabbit renal proximal tubules were isolated using the iron oxide perfusion method and grown in 35-mm tissue culture dishes under improved conditions. The cell culture medium was a 1:1 mixture of DMEM/Ham's F-12 (without D-glucose, phenol red, or sodium pyruvate) supplemented with 15 mM HEPES buffer, 2.5 mM L-gluatmine, 1 μM pyridoxine HCL, 15 mM sodium bicarbonate, and 6 mM lactate. Hydrocortisone (50 nM), selenium (5 ng/mL), human transferrin (5 μg/mL), bovine insulin (10 nM) and L-ascorbic acid-2-phosphate (50 μM) were added to fresh culture medium immediately prior to daily media change.
All numbered compounds were diluted in methanol and the final concentration of methanol in RPRC was less then 0.1% (v/v).
Measurement of RPRC Death
Cell death was monitored in RPRC by assessment of both annexin V and PI staining using flow cytometry. Briefly, RPRC were exposed to the indicated concentrations of compounds for 24 hr. Media was removed and RPRC washed twice with phosphate-buffered saline (PBS) and incubated in a binding buffer (10 mM HEPES, 140 mM NaCL, 5 mM KCL, 1 mM MgCl2, 1.8 mM CaCl2, pH=7.4) containing annexin V-FITC (1 μmol) and PI (25 μg/mL). After a 10 min incubation, RPRC were washed three times in the binding buffer and were released from the monolayers by gentle scrapping with a rubber policeman. Annexin V and PI staining were measured using a BectonDickson FacsCalibur flow cytometer (San Jose, Calif.). An equal number of cells (10,000) were counted for sample and apoptotic cells were defined as those that stained positive for annexin V-FITC only. RPRC undergoing necrotic cell death stained for PI only.
RPRC isolated from one rabbit represented one experiment (n=1). Data were analyzed and are reported as means±standard error of the mean of at least 3 separate experiments.

[2] = test system: Bacillus anthracis Sterne 34F2; assay: microbe, parasite or virus in culture; assay type: cell-based; conditions: for MIC: Bacillus anthracis
S. aureus (MCR) = assay: microbe, parasite or virus in culture; assay type: cell-based; conditions: for MIC: Staphylococcus aureus, read-out: Minimal Inhibitory Concentration (MIC), S. aureus (MCR), multiple values = two or more tests; for Minimal Inhibitory Concentration (MIC), S. aureus (MCR): multiple values = two or more tests
B. subtilis = assay: microbe, parasite or virus in culture; assay type: cell-based; conditions: multiple values = two or more tests; for MIC: Bacillus subtilis, read-out: Minimal Inhibitory Concentration (MIC), B. subtilis
NAD synthetase = NAD synthetase (Bacillus subtilis, UniProt P08164); assay: NAD synthetase coupled enzyme assay; assay type: biochemical; conditions: NAD synthetase 2.0 μg/mL; 0.1 mM NaAD; 0.2 mM ATP; pH 8.5
Chain of NAD synthetase (P08164 whole entry): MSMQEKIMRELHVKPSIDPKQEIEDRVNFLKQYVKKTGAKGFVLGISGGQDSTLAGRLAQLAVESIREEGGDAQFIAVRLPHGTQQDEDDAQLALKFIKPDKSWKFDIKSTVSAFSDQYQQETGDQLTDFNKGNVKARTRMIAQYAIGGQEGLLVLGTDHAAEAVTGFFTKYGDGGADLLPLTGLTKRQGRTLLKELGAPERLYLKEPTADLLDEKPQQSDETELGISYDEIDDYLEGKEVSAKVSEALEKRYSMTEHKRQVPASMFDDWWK
Text: This Example illustrates the NAD synthetase enzyme inhibiting activity of some compounds of the present invention. [drawing 48] The coupled assay—production of NAD was monitored through conversion to NADH by alcohol dehydrogenase. [NADH] was monitored by 2 parallel methods: the change in absorbance at 340 nm, and fluorescence at 460 nm (excitation 320 nm). […] Controls were included for determining inhibitor background, precipitation, and ADH inhibition.

Structure (SMILES) | IC50 (NAD synthetase) | other results
O=C(O)c1cn(C2CC2)c2cc(N3CCNCC3)c(F)cc2c1=O [Ciprofloxacin, reference compound] |  | % CELLULAR NECROSIS (RPRC) [1]: 4 ± 1%; % APOPTOSIS (RPRC) [1]: 9 ± 3%; MIC ([2]; STERNE34F2, read-out: approximate MIC, B. anthracis (first value)): 0.25 µg/mL (≈ 0.754 µM); MIC ([2]; STERNE34F2, read-out: approximate MIC, B. anthracis (second value)): 0.125 µg/mL (≈ 0.377 µM)
CN(C)c1ccc(C(=O)Oc2ccc(OCCCCCCCCOC(=O)C(Cc3ccccc3)[N+](C)(C)C)cc2)cc1 (stereo not drawn) [Compound 1484] | 14.8 µM | MIC (S. aureus (MCR)): < 0.78 µg/mL; MIC (B. subtilis): < 3.13 µg/mL
C[N+](C)(C)C.[I-] [TMAI, tetramethylammonium iodide, reference compound] |  | % CELLULAR NECROSIS (RPRC) [1]: 2 ± 1%; % APOPTOSIS (RPRC) [1]: 5 ± 1%
Cl.N=C(N)N[C@H](COCCCCCCCCOc1ccc(OCc2ccccc2)cc1)Cc1ccccc1 [Compound 1685] | 9.9 µM | Minimal Inhibitory Concentration (MIC), S. aureus (MCR) (S. aureus (MCR)): <0.78 µg/mL; Minimal Inhibitory Concentration (MIC), B. subtilis (B. subtilis): <3.13 µg/mL; approximate MIC, B. anthracis (first value) ([2]; first value of cell, standard broth dilution assay using bacterial growth media (order assumed)): 4; 4 μg/mL; approximate MIC, B. anthracis (second value) ([2]; second value of cell, visual turbidity, bacteria cultured in mammalian cell culture media (order assumed)): 4; 4 μg/mL
C[N+](C)(C)C(Cc1c[nH]c2ccccc12)C(=O)OCCCCCCCn1ccc2cc(OCc3ccccc3)ccc21 (stereo not drawn) [Compound 1505] | 6.6 µM | MIC (S. aureus (MCR)): < 0.78 µg/mL; MIC (B. subtilis): < 0.78 µg/mL
CC1(C)S[C@@H]2[C@H](NC(=O)[C@H](N)c3ccccc3)C(=O)N2[C@H]1C(=O)O [Ampicillin, reference compound] |  | MIC (S. aureus (MCR)): > 50 µg/mL
CCC[N+]1([C@@H](Cc2ccccc2)C(=O)OCCCCCCCCOc2ccc(OCc3ccccc3)cc2)CCCC1 [Compound 1443] | 27.9 µM | 
C[N+](C)(C)C(Cc1ccccc1)C(=O)NCCCCCCCCOc1ccc(OC(=O)c2ccc(F)c(F)c2)cc1 (stereo not drawn) [Compound 1613] | 19.1 µM | 
C[N+](C)(C)[C@@H](Cc1ccccc1)C(=O)OCCCCCCCCOc1ccc2oc(-c3ccccc3)cc(=O)c2c1 [Compound 1371] | 19.1 µM | 
CCC[N+]1([C@@H](Cc2ccccc2)C(=O)NCCCCCCCCOc2ccc(OCc3ccccc3)cc2)CCCC1 [Compound 1502] | 35.6 µM | 
C[N+]1([C@@H](Cc2ccccc2)C(=O)OCCCCCCCCOc2ccc(OCc3ccccc3)cc2)CCCC1 [Compound 1336] | 19.4 µM | 
C[N+](C)(C)C(Cc1ccccc1)C(=O)NCCCCCCCCOc1ccc(OC(=O)c2c(Cl)cc(Cl)cc2Cl)cc1 (stereo not drawn) [Compound 1616] | 38.5 µM | 
C[N+](C)(C)C(Cc1ccccc1)C(=O)OCCCCCCCCOc1ccc(OC(=O)c2ccc(-n3ccnc3)cc2)cc1 (stereo not drawn) [Compound 1486] | 37.8 µM | 
C[N+](C)(C)c1ccc(CC(=O)NCCCCCCCCOc2ccc(OC(=O)c3cc(Cl)ccc3Cl)cc2)cc1 [Compound 1634] | 21.2 µM | 
CC(C)Oc1ccc(C(=O)Oc2ccc(OCCCCCCCCNC(=O)C(Cc3ccccc3)[N+](C)(C)C)cc2)cc1 (stereo not drawn) [Compound 1600] | 28.7 µM | 
C[N+](C)(C)C(Cc1ccccc1)C(=O)NCCCCCCCCOc1ccc(OC(=O)c2c(F)cc(F)cc2F)cc1 (stereo not drawn) [Compound 1620] | 21.9 µM | 
C[N+](C)(C)C(Cc1ccccc1)C(=O)OCCCCCCCCOc1ccc(OCc2cccc(Cl)c2)cc1.[I-] (stereo not drawn) [Compound 1391] | 11.5 µM | Minimal Inhibitory Concentration (MIC), S. aureus (MCR) (S. aureus (MCR)): <1.56 µg/mL; Minimal Inhibitory Concentration (MIC), B. subtilis (B. subtilis): <3.13 µg/mL
CN(C)[C@@H](Cc1ccccc1)C[N+](C)(C)CCCCCCCCOc1ccc(OCc2ccccc2)cc1 [Compound 1498] | 39.4 µM | 
C[N+](C)(C)C(Cc1ccccc1)C(=O)OCCCCCCCCOc1ccc(OC(=O)c2ccccc2)cc1 (stereo not drawn) [Compound 1431] | 18.2 µM | 
C[N+](C)(C)C(Cc1ccccc1)C(=O)OCCCCCCCCOc1ccc(OC(=O)c2ccc(S(N)(=O)=O)cc2)cc1 (stereo not drawn) [Compound 1485] | 34.8 µM | 
CC[N+]1([C@@H](Cc2ccccc2)C(=O)NCCCCCCCCOc2ccc(OCc3ccccc3)cc2)CCCC1 [Compound 1501] | 38.2 µM | 
C[N+](C)(C)C(Cc1ccccc1)C(=O)NCCCCCCCCOc1ccc(OC(=O)c2cc(F)ccc2F)cc1 (stereo not drawn) [Compound 1611] | 23.3 µM | 
